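Exposure lasted 48 hours, with cells grown in 96-well plates and compounds tested at five concentrations. GI50 is the concentration that inhibits growth by half.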 Activity calls are given as the source filed them. Cut-off read from the data, not from the text of the source: active = GI50 up to about 1.1 µM and inactive = higher.
Tests used:
Test in all cases: NCI-60 cell line screen, 48 h
DMS-114 = tested on: DMS-114
DMS-273 = tested on: DMS-273
HOP-18 = tested on: HOP-18
KM-20L2 = tested on: KM-20L2
LXFL 529 = tested on: LXFL 529
M19-MEL = tested on: M19-MEL
XF498 = tested on: XF498
DLD-1 = tested on: DLD-1
RXF 631 = tested on: RXF 631

Measured: GI50

O=C(Cc1nc2sc3c(c2c(=O)[nH]1)CCCC3)Nc1ccccc1
inactive: DMS-114 > 100 µM | DMS-273 > 100 µM | HOP-18 > 100 µM | KM-20L2 > 100 µM | LXFL 529 > 100 µM | M19-MEL > 100 µM | XF498 > 100 µM

COC(=O)n1c(CBr)c(Br)c2ccccc21
inactive: DLD-1 41.5 µM | DMS-114 36.7 µM | DMS-273 46.2 µM | KM-20L2 > 100 µM | M19-MEL 61.7 µM

CC(=O)OC1(Sc2ccccc2)CC2[C@H]3COC(C)(C)O[C@H]3CC[C@@]2(C)CC1=O (stereo partly specified)
inactive: DLD-1 65.2 µM | DMS-114 27 µM | DMS-273 39.6 µM | KM-20L2 37.5 µM | LXFL 529 34.2 µM | M19-MEL 50.9 µM | RXF 631 14.4 µM | XF498 19.2 µM

Oc1cccc(-c2cccc(O)n2)n1
inactive: DLD-1 > 100 µM | DMS-114 > 100 µM | DMS-273 > 100 µM | HOP-18 > 100 µM | LXFL 529 > 100 µM | M19-MEL > 100 µM | RXF 631 > 100 µM

CCCCCCCCCCC(O)C1CCC(C(O)CCC(O)C2CCC(CCCCCCC[C@H](O)CC3=C[C@@H](C)OC3=O)O2)O1 (stereo partly specified)
inactive: DLD-1 54.8 µM | DMS-273 41.6 µM | HOP-18 > 100 µM | KM-20L2 > 100 µM | LXFL 529 14.6 µM | M19-MEL > 76.4 µM | RXF 631 > 46.2 µM | XF498 28.2 µM

O=c1c(Cl)c(Cl)cnn1CCc1ccncc1
inactive: DLD-1 14.6 µM | DMS-114 14 µM | DMS-273 18.6 µM | HOP-18 20 µM | KM-20L2 18.9 µM | LXFL 529 15.8 µM | M19-MEL 15.5 µM | XF498 15.5 µM

CC(C)(CN1CCCCC1)C(=O)/C=C/c1ccc(Cl)cc1
inactive: DLD-1 4.49 µM | DMS-114 3.65 µM | DMS-273 3.52 µM | HOP-18 11.1 µM | KM-20L2 2.36 µM | LXFL 529 2.54 µM | M19-MEL 6.76 µM | RXF 631 9.29 µM

CCCCCCCCCCCCCCCCCC(=O)OCC(C[As](=O)(O)O)OC(=O)CCCCCCCCCCCCCCCCC (stereo unspecified)
inactive: DLD-1 40 µM | DMS-114 17.6 µM | DMS-273 65.3 µM | HOP-18 > 100 µM | KM-20L2 > 100 µM | LXFL 529 72.9 µM | M19-MEL > 100 µM | RXF 631 36.1 µM | XF498 23 µM

CC1O[C@@H]2CCCCC(=O)[C@]2(C)[C@H]1C (stereo partly specified)
inactive: DLD-1 > 100 µM | DMS-114 > 100 µM | DMS-273 > 100 µM | HOP-18 > 100 µM | KM-20L2 > 100 µM | LXFL 529 > 100 µM | M19-MEL > 100 µM | RXF 631 > 100 µM | XF498 > 100 µM

CC12C3CC4C5CC(C(C53)[C@@H]1NCc1ccccc1)C42 (stereo partly specified)
inactive: DLD-1 > 100 µM | DMS-114 > 100 µM | DMS-273 > 100 µM | HOP-18 > 100 µM | KM-20L2 23.2 µM | LXFL 529 > 100 µM | RXF 631 84.3 µM | XF498 > 100 µM

CN(C)CCC1(C2=CCCC2)CC/C(=C\c2ccc(Cl)cc2)C1=O (stereo unspecified)
inactive: DLD-1 7.29 µM | DMS-114 6.27 µM | DMS-273 10.8 µM | HOP-18 11.9 µM | KM-20L2 2.43 µM | LXFL 529 8.95 µM | M19-MEL 5.22 µM | RXF 631 8.69 µM | XF498 6.11 µM

COc1cc2cnc3c4cc(OC)c(OC(C)C)cc4ccc3c2cc1OC
inactive: DLD-1 > 100 µM | DMS-114 > 100 µM | DMS-273 > 100 µM | HOP-18 > 100 µM | KM-20L2 > 100 µM | LXFL 529 > 100 µM | M19-MEL > 100 µM | RXF 631 > 100 µM

C=CCCCn1ccc2ccccc21
inactive: DLD-1 > 100 µM | DMS-114 > 100 µM | HOP-18 > 100 µM | KM-20L2 > 100 µM | LXFL 529 > 100 µM | M19-MEL > 100 µM | RXF 631 > 100 µM | XF498 > 100 µM

Cc1cc(C)c2c(c1)Nc1ccccc1P2c1ccccc1 (stereo unspecified)
inactive: DLD-1 23.5 µM | DMS-114 > 100 µM | DMS-273 21.7 µM | KM-20L2 30.6 µM | LXFL 529 29.2 µM | XF498 4.86 µM

CC(=O)Oc1cccc2c1C(=O)C(Br)(Br)CCC2
inactive: DLD-1 10.1 µM | DMS-114 2.54 µM | DMS-273 3.75 µM | HOP-18 18.2 µM | KM-20L2 8.05 µM | LXFL 529 6.55 µM | M19-MEL 7.28 µM | RXF 631 17.4 µM | XF498 11.2 µM

Cn1nc(-c2cccc(-c3nn(C)/c(=N\CCO)s3)n2)s/c1=N/CCO
inactive: DLD-1 > 100 µM | DMS-114 > 100 µM | DMS-273 > 100 µM | HOP-18 > 100 µM | KM-20L2 > 100 µM | LXFL 529 > 100 µM | M19-MEL > 100 µM

NCCCCC(=O)c1cccnc1
inactive: DLD-1 > 100 µM | DMS-114 > 100 µM | DMS-273 > 100 µM | HOP-18 > 100 µM | KM-20L2 > 100 µM | LXFL 529 > 100 µM | M19-MEL > 100 µM | XF498 > 100 µM

C/C(=N/NS(=O)(=O)c1ccccc1)c1cccc[n+]1[O-]
inactive: DLD-1 > 100 µM | DMS-114 > 100 µM | DMS-273 > 100 µM | HOP-18 > 100 µM | KM-20L2 > 100 µM | LXFL 529 > 100 µM | M19-MEL > 100 µM | RXF 631 > 100 µM | XF498 > 100 µM
